Laboratory results: patent US20110172217A1, “RING-FUSED MORPHOLINE DERIVATIVE HAVING PI3K-INHIBITING ACTIVITY” (Shionogi & Co., Ltd., priority 2008, published 2011)

Target: PI-3 kinase γ (Homo sapiens, UniProt P48736)
Assay: PI3Kγ inhibitory activity, PI3-kinase HTRF assay (inhibition ratio)
Type: biochemical
Settings: 0.5 h, compound at 50 μmol/L
Procedure: For each compound synthesized in the above Examples, PI3Kγ inhibitory activity was measured.
The PI3Kγ inhibitory activity of a compound was evaluated using PI3-kinase HTRF™ assay (Millipore) according to the following procedure:
To each well of a testing plate, 5 μL of a compound solution containing 10% DMSO (200 μmol/L or 40 μmol/L as the concentration of the compound), 5 μL of a substrate solution (40 μmol/L phosphatidylinositol (4,5)-bisphosphate, 20 mmol/L MgCl2, 10 mmol/L DTT), and 5 μL of a enzyme solution (80 μg/mL PI-3 kinase γ, 10 mmol/L MgCl2, 5 mmol/L DTT) were added, and then allowed to stand for 10 minutes.
Then, 5 μL of a reaction solution (40 μmol/L ATP, 10 mmol/L MgCl2, 5 mmol/L DTT) was added thereto. After reacting for 30 minutes at room temperature, 5 μL of a solution containing EDTA and biotinylated phosphatidylinositol (3,4,5)-triphosphate were added to quench the reaction.
5 μL of a detection reagent containing a europium-labeled anti-GST antibody, the GST-tagged PH domain, and allophycocyanin-labeled streptavidin was added thereto. After 18 hours, HTRF (excitation wavelength: 330 nm, measured wavelengths: 620 nm and 665 nm) was measured.
HTRF ratio was defined as the value obtained by dividing the amount of fluorescence obtained at the measured wavelength 665 nm by the amount of fluorescence obtained at 620 nm. The HTRF ratio in the absence of a compound was defined as 100% activity and the HTRF ratio in the absence of PI-3 kinase γ was defined as 0% activity to calculate an inhibition ratio which was defined as the PI3Kγ inhibitory activity of a compound at 50 μmol/L or 10 μmol/L.

PI-3 kinase γ, sequence (P48736 whole entry): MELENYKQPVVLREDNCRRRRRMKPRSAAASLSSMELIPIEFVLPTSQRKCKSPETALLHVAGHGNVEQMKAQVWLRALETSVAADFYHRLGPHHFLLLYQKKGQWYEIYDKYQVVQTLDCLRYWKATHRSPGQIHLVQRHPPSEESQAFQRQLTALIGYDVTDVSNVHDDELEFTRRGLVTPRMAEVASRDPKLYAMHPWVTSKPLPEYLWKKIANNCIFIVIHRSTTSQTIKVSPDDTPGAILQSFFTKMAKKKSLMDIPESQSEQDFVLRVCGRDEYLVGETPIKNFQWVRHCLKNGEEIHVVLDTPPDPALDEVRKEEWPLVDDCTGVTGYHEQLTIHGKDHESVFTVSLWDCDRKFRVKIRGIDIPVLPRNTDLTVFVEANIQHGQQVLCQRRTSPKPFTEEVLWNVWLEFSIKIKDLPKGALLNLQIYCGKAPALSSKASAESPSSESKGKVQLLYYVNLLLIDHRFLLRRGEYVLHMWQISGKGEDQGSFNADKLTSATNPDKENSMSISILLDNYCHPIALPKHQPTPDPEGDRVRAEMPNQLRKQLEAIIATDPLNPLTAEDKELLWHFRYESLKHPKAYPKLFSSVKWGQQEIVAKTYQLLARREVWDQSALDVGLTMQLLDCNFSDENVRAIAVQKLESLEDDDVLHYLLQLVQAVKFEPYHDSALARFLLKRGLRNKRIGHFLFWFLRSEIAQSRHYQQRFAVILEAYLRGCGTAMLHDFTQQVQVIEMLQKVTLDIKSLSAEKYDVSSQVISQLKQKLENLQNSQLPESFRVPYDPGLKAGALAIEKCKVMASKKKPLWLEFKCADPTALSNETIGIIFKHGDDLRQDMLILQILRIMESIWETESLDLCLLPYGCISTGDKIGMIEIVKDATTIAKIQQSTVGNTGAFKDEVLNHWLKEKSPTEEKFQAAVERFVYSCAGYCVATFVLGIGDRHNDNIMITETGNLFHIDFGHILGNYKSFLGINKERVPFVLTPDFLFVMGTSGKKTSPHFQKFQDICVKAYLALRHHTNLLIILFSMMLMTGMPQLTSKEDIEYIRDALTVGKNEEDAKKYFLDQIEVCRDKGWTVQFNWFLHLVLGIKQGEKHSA

Compound	inhibition at 50 µM [%]
O=C(O)c1ccc(Nc2ccc3c(n2)N(C(=O)Nc2ccccc2)CCO3)nc1 [Compound I-183]	86
O=C(O)c1cncc(-c2ccc3c(n2)N(C(=O)Nc2ccccc2)CCO3)c1 [Compound I-184]	≥ 95
Nc1ccc(-c2ccc3c(n2)N(C(=O)Nc2ccccc2)CCO3)cn1 [Compound I-185]	76
O=C(Nc1ccccc1)N1CCOc2ccc(-c3ccn[nH]3)nc21 [Compound I-187]	≥ 95
Cc1n[nH]cc1-c1ccc2c(n1)N(C(=O)Nc1ccccc1)CCO2 [Compound I-188]	≥ 95
Cc1n[nH]c(C)c1-c1ccc2c(n1)N(C(=O)Nc1ccccc1)CCO2 [Compound I-189]	83
Cn1cc(-c2ccc3c(n2)N(C(=O)Nc2ccccc2)CCO3)cn1 [Compound I-190]	≥ 95
CCOC(=O)N1CCC(NC(=O)N2CCOc3ccc(-c4ccc(C(=O)O)cc4)nc32)CC1 [Compound I-203]	≥ 95
O=C(O)c1ccc(-c2ccc3c(n2)N(C(=O)NCCO)CCO3)cc1 [Compound I-205]	≥ 95
O=C(Nc1ccccc1)N1CCOc2ccc(N3CCOCC3)nc21 [Compound I-207]	81
O=C(O)c1ccc(-c2ccc3c(n2)N(C(=O)Nc2ccncc2)CCO3)cc1 [Compound I-209]	90
COc1ccc(NC(=O)N2CCOc3ccc(Nc4ccc(C(=O)O)cc4)nc32)cc1OC [Compound I-210]	≥ 95
COc1cccc(NC(=O)N2CCOc3ccc(Nc4ccc(C(=O)O)cc4)nc32)c1 [Compound I-211]	≥ 95
CCOC(=O)Cc1ccc(Nc2ccc3c(n2)N(C(=O)Nc2ccccc2)CCO3)cc1 [Compound I-212]	≥ 95
CC(C)(C)OC(=O)COc1ccc(Nc2ccc3c(n2)N(C(=O)Nc2ccccc2)CCO3)cc1 [Compound I-213]	≥ 95
CC(C)(C)OC(=O)NCCOc1ccc(Nc2ccc3c(n2)N(C(=O)Nc2ccccc2)CCO3)cc1 [Compound I-214]	≥ 95
CC(C)(C)OC(=O)NCCOc1ccccc1Nc1ccc2c(n1)N(C(=O)Nc1ccccc1)CCO2 [Compound I-215]	≥ 95
COC(=O)c1ccc(Nc2ccc3c(n2)N(C(=O)Nc2ccccc2)CCO3)c(OCCNC(=O)OC(C)(C)C)c1 [Compound I-216]	≥ 95
COC(=O)c1ccc(O)c(Nc2ccc3c(n2)N(C(=O)Nc2ccccc2)CCO3)c1 [Compound I-217]	77
COCOc1ccc(C(=O)O)cc1NC(=O)c1ccc2c(n1)N(C(=O)Nc1ccccc1)CCO2 [Compound I-218]	87
CC(C)(C)OC(=O)NCCOc1cccc(Nc2ccc3c(n2)N(C(=O)Nc2ccccc2)CCO3)c1 [Compound I-219]	≥ 95
O=C(O)C1CCN(c2ccc3c(n2)N(C(=O)Nc2ccccc2)CCO3)CC1 [Compound I-220]	≥ 95
NCCOc1ccc(Nc2ccc3c(n2)N(C(=O)Nc2ccccc2)CCO3)cc1 [Compound I-221]	≥ 95

Compound	inhibition at 50 µM [%]
NCCOc1cccc(Nc2ccc3c(n2)N(C(=O)Nc2ccccc2)CCO3)c1 [Compound I-222]	≥ 95
NCCOc1ccccc1Nc1ccc2c(n1)N(C(=O)Nc1ccccc1)CCO2 [Compound I-223]	≥ 95
O=C(O)COc1ccc(Nc2ccc3c(n2)N(C(=O)Nc2ccccc2)CCO3)cc1 [Compound I-224]	≥ 95
O=C(O)Cc1ccc(Nc2ccc3c(n2)N(C(=O)Nc2ccccc2)CCO3)cc1 [Compound I-225]	≥ 95
CC(C)(C)OC(=O)NCCOc1cc(C(=O)O)ccc1Nc1ccc2c(n1)N(C(=O)Nc1ccccc1)CCO2 [Compound I-226]	≥ 95
NCCOc1cc(C(=O)O)ccc1Nc1ccc2c(n1)N(C(=O)Nc1ccccc1)CCO2 [Compound I-227]	≥ 95
COC(=O)c1ccc(Nc2ccc3c(n2)N(C(=O)Nc2ccccc2)CCO3)cc1 [Compound I-229]	≥ 95
Cc1cc(C(=O)O)ccc1-c1ccc2c(n1)N(C(=O)Nc1ccccc1)CCO2 [Compound I-230]	≥ 95
CC(C)(C)OC(=O)N1CCC(Nc2ccc3c(n2)N(C(=O)Nc2ccccc2)CCO3)CC1 [Compound I-231]	≥ 95
COC(=O)c1cccc(Nc2ccc3c(n2)N(C(=O)Nc2ccccc2)CCO3)c1 [Compound I-232]	≥ 95
CC(C)(C)OC(=O)COc1cccc(Nc2ccc3c(n2)N(C(=O)Nc2ccccc2)CCO3)c1 [Compound I-233]	≥ 95
CC(C)(C)OC(=O)COc1cccc(Nc2cnc3c(c2)OCCN3C(=O)Nc2ccccc2)c1 [Compound I-234]	≥ 95
CC(C)(C)OC(=O)COc1ccc(Nc2cnc3c(c2)OCCN3C(=O)Nc2ccccc2)cc1 [Compound I-237]	≥ 95
CCOC(=O)CNC(=O)Nc1cnc2c(c1)OCCN2C(=O)Nc1ccccc1 [Compound I-238]	83
O=C(O)COc1cccc(Nc2cnc3c(c2)OCCN3C(=O)Nc2ccccc2)c1 [Compound I-241]	≥ 95
CC(C)(C)OC(=O)COc1ccccc1Nc1ccc2c(n1)N(C(=O)Nc1ccccc1)CCO2 [Compound I-242]	≥ 95
COC(=O)c1ccc(N(C)c2cnc3c(c2)OCCN3C(=O)Nc2ccccc2)cc1 [Compound I-243]	77
CC(C)(C)OC(=O)N1CCN(c2cnc3c(c2)OCCN3C(=O)Nc2ccccc2)CC1 [Compound I-244]	80
CC(C)(C)OC(=O)N1CCN(c2cnc3c(c2)OCCN3C(=O)Nc2ccccc2)CC1C(=O)O (centres unmarked) [Compound I-245]	≥ 95
O=C(Nc1ccccc1)N1CCOc2cc(N3CCNCC3)cnc21 [Compound I-246]	≥ 95
COC(=O)c1cncc(-c2ccc3c(n2)N(C(=O)Nc2ccccc2)CCO3)c1 [Compound I-249]	≥ 95
O=C(Nc1ccccc1)N1CCOc2cc(-c3ccnn3C3CCCCO3)cnc21 (centres unmarked) [Compound I-250]	91
O=C(Nc1ccccc1)N1CCOc2cc(-c3cn[nH]c3)cnc21 [Compound I-251]	≥ 95

Compound	inhibition at 50 µM [%]
O=C(O)COc1ccc(Nc2cnc3c(c2)OCCN3C(=O)Nc2ccccc2)cc1 [Compound I-252]	≥ 95
O=C(O)c1ccc(-c2ccc3c(n2)OCCN3C(=O)Nc2ccccc2C(=O)O)cc1 [Compound I-259]	≥ 95
COc1cccc(NC(=O)N2CCOc3nc(-c4ccc(C(=O)O)cc4)ccc32)c1 [Compound I-265]	75
O=C(Nc1ccccc1)N1CCOc2cc(-c3cc[nH]n3)cnc21 [Compound I-269]	71
O=C(Nc1cccnc1)N1CCOc2cc(Nc3ccccc3)cnc21 [Compound I-271]	≥ 95
CC(C)(C)OC(=O)CNC(=O)c1cccc(Nc2ccc3c(n2)N(C(=O)Nc2ccccc2)CCO3)c1 [Compound I-272]	≥ 95
CC(C)(C)OC(=O)CNC(=O)c1ccc(Nc2ccc3c(n2)N(C(=O)Nc2ccccc2)CCO3)cc1 [Compound I-273]	76
O=C(Nc1ccccc1)N1CCOc2cc(-c3ccc[nH]3)cnc21 [Compound I-274]	≥ 95
O=C(O)CNC(=O)c1cccc(Nc2ccc3c(n2)N(C(=O)Nc2ccccc2)CCO3)c1 [Compound I-277]	≥ 95
O=C(O)CNC(=O)c1ccc(Nc2ccc3c(n2)N(C(=O)Nc2ccccc2)CCO3)cc1 [Compound I-278]	≥ 95
O=C(O)Cn1cc(-c2cnc3c(c2)OCCN3C(=O)Nc2ccccc2)cn1 [Compound I-280]	88
O=C(Nc1ccccc1)N1CCOc2cc(-c3cc4ccccc4[nH]3)cnc21 [Compound I-282]	74
CC(C)(C)OC(=O)n1c(-c2cnc3c(c2)OCCN3C(=O)Nc2ccccc2)cc2ccccc21 [Compound I-283]	85
CN(c1ccc(C(=O)O)cc1)c1ccc2c(n1)N(C(=O)Nc1ccccc1)CCO2 [Compound I-284]	82
O=C(O)c1ccc(-c2cnc3c(c2)OCCN3C(=O)Nc2ccccc2)s1 [Compound I-285]	88
CC1CN(C(=O)Nc2ccccc2)c2nc(-c3ccc(C(=O)O)cc3)ccc2O1 (centres unmarked) [Compound I-290]	86
O=C(Nc1ccccc1)N1CCOc2cc(-c3cnn(CCN4CCOCC4)c3)cnc21 [Compound I-293]	≥ 95
COc1ccc2cc(-c3cnc4c(c3)OCCN4C(=O)Nc3ccccc3)[nH]c2c1 [Compound I-302]	87
CNC(=O)c1cnc2c(c1)OCCN2C(=O)Nc1ccccc1 [Compound I-303]	89
CC(C)(C)OC(=O)CCNC(=O)c1cnc2c(c1)OCCN2C(=O)Nc1ccccc1 [Compound I-305]	84
O=C(O)CCNC(=O)c1cnc2c(c1)OCCN2C(=O)Nc1ccccc1 [Compound I-307]	92
O=C(Nc1ccccc1)N1CCOc2cc(Nc3ccc(F)cc3Cl)cnc21 [Compound I-309]	90
